{"source": "patent US20210162013A1", "about": "“COMPOSITIONS AND METHODS FOR IMPROVING THE BIOAVAILABILITY OF GLP1 AND ANALOGUES THEREOF” (Brown University, priority 2018, published 2021)", "key": {"[1]": {"system": "BKS.Cg WT mice", "assay": "Bioavailability: IPGTT, oral PIN/PLA GLP-1 vs intraperitoneal soluble peptide, serum glucose AUC", "type": "in vivo", "method": "All mice were then injected intraperitoneally with glucose (3 mg/ml in 0.2 ml saline). Blood was collected at time 0 (pre-glucose) and at indicated times post-glucose. Serum glucose levels were determined as described above."}, "[2]": {"conditions": "oral, relative to intravenous administration of GLP-1; cited from earlier work"}, "[3]": {"molecular_target": "T1, GLP-1 receptor (Homo sapiens, UniProt P43220)", "T1 sequence (P43220 24-463, species assumed)": "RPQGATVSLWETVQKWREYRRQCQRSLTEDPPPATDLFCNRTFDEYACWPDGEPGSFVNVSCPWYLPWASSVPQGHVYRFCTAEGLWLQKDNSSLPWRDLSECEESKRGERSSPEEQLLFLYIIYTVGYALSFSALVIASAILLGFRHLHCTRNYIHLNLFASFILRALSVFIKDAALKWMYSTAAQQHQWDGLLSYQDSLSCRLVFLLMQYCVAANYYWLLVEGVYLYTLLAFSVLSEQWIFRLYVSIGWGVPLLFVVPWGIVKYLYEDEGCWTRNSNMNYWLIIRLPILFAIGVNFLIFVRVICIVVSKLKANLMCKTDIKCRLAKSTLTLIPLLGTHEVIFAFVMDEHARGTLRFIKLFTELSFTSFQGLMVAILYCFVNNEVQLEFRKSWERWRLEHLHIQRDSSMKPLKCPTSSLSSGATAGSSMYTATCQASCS", "conditions": "cited from earlier work"}, "[4]": {"molecular_target": "T1, GLP-1 receptor", "conditions": "cited from earlier work", "remark": "listed apart in the source"}, "[5]": {"system": "type 2 diabetic patients", "conditions": "cited from earlier work"}}, "note": "Like-named read-outs stand apart in the source and are kept apart here. No end group written: not given here."}
{"substance": "GLP-1 (7-36 amide) [Free]", "values": [{"measurement": "AUC 30 ug (serum glucose area under the curve)", "setting": "[1]; 30 ug GLP-1/mouse, Free = intraperitoneal soluble peptide, Encap = oral PIN/PLA particles", "result": 7515}, {"measurement": "AUC 90 ug (serum glucose area under the curve)", "setting": "[1]; 90 ug GLP-1/mouse, Free = intraperitoneal soluble peptide, Encap = oral PIN/PLA particles", "result": 7425}, {"measurement": "AUC 250 ug (serum glucose area under the curve)", "setting": "[1]; 250 ug GLP-1/mouse, Free = intraperitoneal soluble peptide, Encap = oral PIN/PLA particles", "result": 6262}, {"measurement": "effect on blood glucose in IPGTT (in words)", "setting": "[1]; 250 μg GLP-1, oral particles vs intraperitoneal soluble peptide", "result": "superior"}, {"measurement": "mean absolute bioavailability", "setting": "[2]", "result": 4, "unit": "%"}]}
{"substance": "GLP-1(9-36)-NH2 (EGTFTSDVSSYLEGQAAKEFIAWLVKGR-NH2; UniProt P01275 100-127, looked up, fragment)", "values": [{"measurement": "lower binding affinity compared to the intact peptide", "setting": "[3]", "result": 100, "unit": "fold"}, {"measurement": "decrease in agonistic activity", "setting": "[4]", "result": "> 10000", "unit": "fold"}]}
{"substance": "rGLP-1: rGLP-1 given by continuous infusion in a cited study", "values": [{"measurement": "decrease in fasting serum glucose", "setting": "[5]; 1.25 pmol/kg/min", "result": 22.7, "unit": "mg/dL"}, {"measurement": "decrease in fasting serum glucose", "setting": "[5]; 2.5 pmol/kg/min", "result": 37.0, "unit": "mg/dL"}, {"measurement": "decrease in fasting serum glucose", "setting": "[5]; 5.0 pmol/kg/min", "result": 53.9, "unit": "mg/dL"}, {"measurement": "decrease in fasting serum glucose", "setting": "[5]; 8.5 pmol/kg/min", "result": 76.2, "unit": "mg/dL"}]}
